For one data set, the system named is Mtb ribosome. Type of data set: biochemical, Mycobacterium tuberculosis.
Data set [1] deals with Mtb H37Rv. Kind of data set: microbe, parasite or virus in culture. The conditions noted are these: Mycobacterium tuberculosis, H37RV; read-out: MIC for Mtb in liquid culture. The class given is cell-based, Mycobacterium tuberculosis.
The next data set relates to Mtb methylated ribosome. Kind of data set: Mtb in vitro translation assay with methylated (erythromycin-treated) ribosome. Type of data set: biochemical, Mycobacterium tuberculosis.
The subject of data set [2] is Mtb H37Rv. Kind of data set: Combination study in mouse model of TB. Type of data set: in vivo. The following applies: mouse, in vivo.
For data set [3], the system named is Mtb H37Rv. Kind of data set: MIC80 after overnight pre-incubation of Mtb with subinhibitory macrolide. The class given is cell-based. The conditions noted are these: Mycobacterium tuberculosis.
The next data set deals with M. bovis BCG Pasteur. Put plainly: microbe, parasite or virus in culture. Type of data set: cell-based, Mycobacterium bovis.
The format of data set [4] is in vitro ADME.
For data set [5], the system named is GFP-expressing Mtb H37Rv in RAW264.7 macrophages. Kind of data set: Intramacrophage assay (MIC for Mtb in macrophages). The class given is cell-based, Mycobacterium tuberculosis. The conditions noted are these: Mycobacterium tuberculosis, H37RV; read-out: MIC for Mtb tuberculosis in macrophages.
The next data set in a line: in vitro. Type of data set: in vitro ADME. The following applies: human, Caco-2; read-out: Permeability in Caco2 cells (Papp). In general terms: Caco-2 cells form a polarised layer with tight junctions and transporters.
The format of data set [6] is in vitro ADME, human. The method, then: The metabolic stability of test compounds was determined as described.[57]^,[58] Incubation and experimental conditions with human hepatic microsomal fractions (purchased from BD Gentest as a pooled batch from 6 donors) were as follows: microsomal proteins, 1 mg/mL; bovine serum albumin, 1 mg/mL; substrate, 5 μM; incubation duration, 20 min; cytochrome P-450 monooxygenases (CYPs) and flavin containing monooxygenases (FMOs) cofactor, 1 mM NADPH. Enzyme activity was stopped with 1 volume of acetonitrile. […] For each test compound and for each microsomal preparation, three incubations were prepared: absolute reference in buffer (without enzyme material, i.e., microsomes); incubation without NADPH cofactor (with microsomal fractions); and incubation with NADPH (with microsomal fractions). For most compounds, biotransformation, as observed in hepatic microsomal fractions in the presence of the NADPH cofactor, consists of oxidative reactions catalyzed by either CYPs or FMOs. In these conditions, the percentage of total metabolism, which corresponds to oxidative metabolism, was determined as follows: [% total metabolism] ≈ [% oxidative metabolism] = [unchanged compound (UC) peak area − NADPH UC peak area + NADPH] × 100%, where NADPH corresponds to the enzyme cofactor for oxidation reactions catalyzed by either CYP or FMO.

A further data set in a line: physchem. Type of data set: physicochemical. The conditions noted are these: aqueous buffer; PBS pH 7.4; read-out: Solubility: PBS@pH 7.4.
Another data set addresses T1, CYP3A4 (Homo sapiens, UniProt P08684).
T1 construct: human liver microsomes (purchased from BD Gentest as a pooled batch from 150 donors); tissue BD Gentest Cat#452117; host or cells: pooled human liver microsomes (150 donors)
Kind of data set: CYP3A4 reversible inhibition in human liver microsomes. The class given is in vitro ADME. The conditions noted are these: substrate not stated; read-out: CYP3A4 inhibition. The method, then:
Incubations were performed with 0.1 mg/mL human liver microsomes (purchased from BD Gentest as a pooled batch from 150 donors) in a final incubation volume of 0.25 mL. The incubation medium contained 0.05 M phosphate buffer (pH 7.4) containing an NADPH regenerating system (including 1.3 mM NADP, 3.3 mM glucose 6-phosphate,3.3 mM MgCl2, and 1.0 U/mL glucose 6-phosphate dehydrogenase). Probe CYP3A4 substrates (midazolam at 3 μM and testosterone at 50 μM), were incubated for 10 and 30 min, respectively, with increasing concentrations of GM, MGM or CGM (concentration range: 1 - 30 μM). The reaction was stopped by adding acetonitrile to precipitate the proteins. The incubation mixtures were then centrifuged for 5 min at 10,000 × g, and an aliquot of the supernatant was analyzed using high-performance liquid chromatography coupled to mass spectrometry for the assessment of 1’-hydroxymidazolam and 6β-hydroxytestosterone metabolite formation.
For orientation: Liver microsomes are vesicles of endoplasmic reticulum, rich in cytochrome P450 enzymes.

Another data set is described as follows: in vivo. The conditions noted are these: male, Swiss, mouse, po.
[7] abbreviates: read-out: Inhibition of Mtb translation (IC50 μM).
Where [8] appears, read: non-methylated ribosome, read-out: IC50 ribosome.
Where [9] appears, read: methylated ribosome, read-out: IC50 methylated ribosome.

In brackets after ≈: the same amount, converted by molar mass. Like-named read-outs stand apart in the source and are kept apart here.

T1 sequence (P08684 whole entry): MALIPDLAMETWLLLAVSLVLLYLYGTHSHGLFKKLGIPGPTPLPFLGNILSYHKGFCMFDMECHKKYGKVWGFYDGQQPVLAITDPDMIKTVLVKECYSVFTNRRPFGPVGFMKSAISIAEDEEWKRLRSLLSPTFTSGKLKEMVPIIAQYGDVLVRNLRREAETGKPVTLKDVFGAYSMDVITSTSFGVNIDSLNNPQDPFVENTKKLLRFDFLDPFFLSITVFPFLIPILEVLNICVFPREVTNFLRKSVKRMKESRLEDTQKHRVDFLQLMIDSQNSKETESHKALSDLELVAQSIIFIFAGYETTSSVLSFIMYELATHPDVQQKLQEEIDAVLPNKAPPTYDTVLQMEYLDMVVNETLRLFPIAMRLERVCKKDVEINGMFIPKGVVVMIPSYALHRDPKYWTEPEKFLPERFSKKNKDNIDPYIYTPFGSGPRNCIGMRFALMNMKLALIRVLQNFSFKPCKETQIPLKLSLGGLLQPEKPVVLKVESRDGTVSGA

With `CO/N=C1\C[C@@H](C)O[C@@H](O[C@@H]2[C@@H](C)[C@H](O[C@H]3C[C@@](C)(O)[C@@H](O)[C@H](C)O3)[C@@H](C)C(=O)O[C@H]([C@@H](C)CO[C@@H]3O[C@H](C)[C@@H](O)[C@@H](OC)[C@H]3OC)[C@H](C)[C@@H](OC(=O)CC(C)C)[C@@H](C)C(=O)[C@@](C)(OC(=O)NCCNS(=O)(=O)c3ccccc3[N+](=O)[O-])C[C@@H]2C)[C@@H]1O` [SEQ-977], the IC50 in the data set with Mtb ribosome (setting [7]) was 0.034 µM. The MIC in the data set on Mtb H37Rv [1] worked out at 0.13 µM (≈ 0.164 µg/mL).
In the case of `CCC[C@@H]1C[C@@H](C(=O)N[C@@H]([C@H]2O[C@H](SC)[C@H](O)[C@@H](O)[C@H]2O)[C@H](C)Cl)N(C)C1` [Clindamycin, reference compound], the values for the IC50 in the data set on Mtb ribosome (setting [8]) and in the data set with Mtb methylated ribosome (setting [9]) were 0.08 µM and 42.3 µM, respectively.
As for `CC(=O)NC[C@H]1CN(c2ccc(N3CCOCC3)c(F)c2)C(=O)O1` [Linezolid], in the data set with Mtb H37Rv [2], the “Mean ± SD lung CFU counts, Week 4” value is listed as 6.86 ± 0.08. The MIC80 against Mtb H37Rv [3] stood at 1 µM (≈ 0.337 µg/mL).
As for `O=[N+]([O-])c1cn2c(n1)OC[C@@H](OCc1ccc(OC(F)(F)F)cc1)C2` [Pa, Pretomanid], the “Mean ± SD lung CFU counts, Week 4” value in the data set on Mtb H37Rv [2] came to 5.83 ± 0.12.
In the case of `CC[C@H]1OC(=O)[C@H](C)[C@@H](O[C@H]2C[C@@](C)(OC)[C@@H](O)[C@H](C)O2)[C@H](C)[C@@H](O[C@@H]2O[C@H](C)C[C@H](N(C)C)[C@H]2O)[C@](C)(O)C[C@@H](C)CN(C)[C@H](C)[C@@H](O)[C@]1(C)O` [Azithromycin, reference compound], the IC50 with Mtb ribosome (setting [8]) was 2.91 µM; in the data set on Mtb methylated ribosome (setting [9]), more than 100 µM.
`CC[C@H]1OC(=O)[C@H](C)[C@@H](O[C@H]2C[C@@](C)(OC)[C@@H](O)[C@H](C)O2)[C@H](C)[C@@H](O[C@@H]2O[C@H](C)C[C@H](N(C)C)[C@H]2O)[C@](C)(O)C[C@@H](C)C(=O)[C@H](C)[C@@H](O)[C@]1(C)O` [Erythromycin, reference compound]: the results for the IC50 with Mtb ribosome (setting [8]) and in the data set on Mtb methylated ribosome (setting [9]) were 0.671 µM and 140 µM, respectively. For the same compound, the MIC in the data set with Mtb H37Rv [1] is 128 µM (≈ 93.9 µg/mL).
In the case of `CC[C@H]1OC(=O)C[C@@H](O)[C@H](C)[C@@H](O[C@@H]2O[C@H](C)[C@@H](O[C@H]3C[C@@](C)(O)[C@@H](O)[C@H](C)O3)[C@H](N(C)C)[C@H]2O)[C@@H](CC=O)C[C@@H](C)C(=O)/C=C/C(C)=C/[C@@H]1CO[C@@H]1O[C@H](C)[C@@H](O)[C@@H](OC)[C@H]1OC` [Tylosin, reference compound], the IC50 in the data set on Mtb ribosome (setting [8]) worked out at 0.0892 µM; with Mtb methylated ribosome (setting [9]) it was 0.377 µM.
With `NNC(=O)c1ccncc1` [Isoniazid, reference compound], the “Growth inhibition (MIC80)” value with M. bovis BCG Pasteur amounted to 0.40 µM. In addition, in the data set with M. bovis BCG Pasteur (Mycobacterium tuberculosis variant bovis BCG, BCG, read-out: Growth inhibition (MIC80)), the MIC80 is 0.34 µM (≈ 0.0466 µg/mL).
For the compound `NC(=O)c1cnccn1` [Z, Pyrazinamide], in the data set with Mtb H37Rv [2], the “Mean ± SD lung CFU counts, Week 4” value stood at 5.99 ± 0.19.
For the compound `CC[C@H]1OC(=O)[C@H](C)[C@@H](O[C@H]2C[C@@](C)(OC)[C@@H](O)[C@H](C)O2)[C@H](C)[C@@H](O[C@@H]2O[C@H](C)C[C@H](N(C)C)[C@H]2O)[C@](C)(O)C[C@@H](C)/C(=N\OCOCCOC)[C@H](C)[C@@H](O)[C@]1(C)O` [roxithromycin, reference compound], the MIC with Mtb H37Rv [1] amounted to 32 µM (≈ 26.8 µg/mL).
For `COc1nc2ccc(Br)cc2cc1[C@@H](c1ccccc1)[C@@](O)(CCN(C)C)c1cccc2ccccc12` [BDQ, Bedaquiline], the “Mean ± SD lung CFU counts, Week 4” value in the data set on Mtb H37Rv [2] is recorded as 2.96 ± 0.19.
For orientation: Papp means the rate of passage across a membrane or cell layer, normalised by area and donor concentration. What is called solubility is the concentration that dissolves in the medium under given conditions. The bioavailability is the share of a dose that reaches the circulation, judged against a reference dose that is usually intravenous. High values mean much systemic uptake, low ones little systemic uptake. Regarding `COC1C(OCC(C)C2OC(=O)C(C)C(OC3CC(C)(O)C(O)C(C)O3)C(C)C(OC3OC(C)CC(=O)C3O)C(C)CC(C)(O)C(=O)C(C)C(OC(=O)CC(C)C)C2C)OC(C)C(O)C1OC` [SEQ-503, (3S,4S,5R,7S,9S,10S,11R,12S,13R)-12-[(4,5-dihydroxy-4,6-dimethyltetrahydro-2H-pyran2-yl)oxy]-7-hydroxy-2-{1-[(5-hydroxy-3,4-dimethoxy-6-methyltetrahydro-2H-pyran-2-yl)oxy]propan-2-yl}-10-[(3-hydroxy-6-methyl-4-oxotetrahydro-2H-pyran-2-yl)oxy]-3,5,7,9,11,13-hexamethyl-6,14-dioxooxacyclotetradecan-4-yl) 3-methylbutanoate], the IC50 was 0.021 µM in the data set with Mtb ribosome (setting [7]), more than 10 µM on CYP3A4 and 0.022 µM in the data set with Mtb methylated ribosome (read-out: Translation inhibition of Mtb methylated ribosome (IC50 μM)). For the same compound, the “Metabolic stability in mouse liver microsomes (% metabolized compound after 20 min)” value in data set [4] is 0/ND %. Further, the values for the MIC (in data set [5]; in the data set on Mtb H37Rv [1]) were 2.5 µM (≈ 2.41 µg/mL) and 1.4 µM (≈ 1.35 µg/mL), respectively. Also, the Papp in the data set “in vitro” is 0.07 ×10⁻⁶ cm/s. Besides, in [6] (20 min incubation), the “Metabolic stability in human liver microsomes (% metabolized compound after 20 min)” value is 67%. The “Metabolic stability in human liver microsomes (% metabolized compound after 20 min), (K)” value in [6] (in presence of ketoconazole CYP3A inhibitor (K)) is 4(K) %. Besides, in data set [6] (in presence of quinidine CYP2D6 inhibitor (Q)), the “Metabolic stability in human liver microsomes (% metabolized compound after 20 min), (Q)” value is given as “/41(Q) %”. For the same compound, the solubility in “physchem” was 522 µg/mL (≈ 542 µM). This compound also came in with a bioavailability in the data set “in vivo” of 22%.
As to `CON=C1C[C@@H](C)O[C@@H](O[C@@H]2[C@@H](C)[C@H](O[C@H]3C[C@@](C)(O)[C@@H](O)[C@H](C)O3)[C@@H](C)C(=O)O[C@H](C(C)CO[C@@H]3O[C@H](C)[C@@H](O)[C@@H](OC)[C@H]3OC)[C@H](C)[C@@H](OC(=O)CC(C)C)[C@@H](C)C(=O)[C@@](C)(OC(=O)NCCn3c([N+](=O)[O-])cnc3C)C[C@@H]2C)[C@@H]1O` (stereo partly drawn) [SEQ-569], in the data set on Mtb ribosome (setting [7]), the IC50 came out at 0.054 µM. In addition, the MIC in the data set on Mtb H37Rv [1] worked out at 0.57 µM (≈ 0.677 µg/mL).

The record behind these values is publication PMC9994261 (Cell, 2023).
